A short description of assay [1]: Binding affinity to regulatory site of NMDA receptor at 5 ug/mL by glycine binding assay.
The target in assay [2] is Somatostatin receptor (Rattus norvegicus) (UniProt Q7TT86). Description: Displacement of [125I]somatostatin from somatostatin receptor in rat cerebral cortices membrane at 5 ug/mL. It is filed as cell membranes.
Assay [3] relates to BOWES. Description: Binding affinity to galanin receptor in human BOWES cells at 5 ug/mL. It is filed as cell-based.
The species entered for assay [4] is Rattus norvegicus. Description: Displacement of [3H]NPY from neuropeptide Y receptor in rat cerebral cortices membrane at 5 ug/mL. It is filed as cell membranes. On the technique in general: In a radioligand displacement assay an active substance lowers the binding of a labelled ligand.
A short description of assay [5]: Binding affinity to quisqualate site of glutamate receptor at 5 ug/mL by AMPA binding assay.
For assay [6], the target named is Calcitonin gene-related peptide type 1 receptor (Homo sapiens) (UniProt Q16602). Description: Binding affinity to CGRP receptor at 5 ug/mL.
Sequence of Calcitonin gene-related peptide type 1 receptor (Homo sapiens) (Q16602 whole entry): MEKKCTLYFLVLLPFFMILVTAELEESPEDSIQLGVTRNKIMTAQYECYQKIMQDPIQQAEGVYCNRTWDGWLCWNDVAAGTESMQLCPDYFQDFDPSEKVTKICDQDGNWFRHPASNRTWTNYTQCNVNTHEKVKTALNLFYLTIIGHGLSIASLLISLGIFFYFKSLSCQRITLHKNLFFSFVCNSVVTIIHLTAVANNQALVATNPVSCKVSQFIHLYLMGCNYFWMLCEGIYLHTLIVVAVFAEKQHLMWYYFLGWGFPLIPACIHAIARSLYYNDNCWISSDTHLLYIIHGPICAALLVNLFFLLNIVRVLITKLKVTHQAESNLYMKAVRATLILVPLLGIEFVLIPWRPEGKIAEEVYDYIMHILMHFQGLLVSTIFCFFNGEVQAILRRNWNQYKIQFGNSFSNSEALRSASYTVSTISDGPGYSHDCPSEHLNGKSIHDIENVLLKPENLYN
A short description of assay [7]: Binding affinity to VIP receptor at 5 ug/mL.
Assay [8] has as its target T1, B2 bradykinin receptor (Homo sapiens) (UniProt P30411).
T1 sequence (whole entry): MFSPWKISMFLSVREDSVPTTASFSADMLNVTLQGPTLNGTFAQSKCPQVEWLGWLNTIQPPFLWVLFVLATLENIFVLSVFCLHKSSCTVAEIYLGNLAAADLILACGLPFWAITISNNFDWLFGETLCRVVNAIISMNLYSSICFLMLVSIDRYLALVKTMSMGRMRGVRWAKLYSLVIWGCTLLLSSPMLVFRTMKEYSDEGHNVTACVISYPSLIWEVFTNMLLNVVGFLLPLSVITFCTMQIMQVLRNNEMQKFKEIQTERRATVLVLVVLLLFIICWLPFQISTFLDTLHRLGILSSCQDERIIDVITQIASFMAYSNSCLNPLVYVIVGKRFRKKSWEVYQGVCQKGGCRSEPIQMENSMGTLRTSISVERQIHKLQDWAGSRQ
The experiment in a line: Displacement of [3H]bradykinin from bradykinin B2 receptor expressed in baculovirus-infected SF21 cells at 5 ug/mL.

Assay [9] can be described thus: Binding affinity to neurotensin receptor at 5 ug/mL.
Assay [10] can be described thus: Antagonist activity at serotonin receptor in guinea pig ileum assessed as inhibition of serotonin-induced contraction. It is filed as functional, tissue-based. As to conditions: Cavia porcellus.
Assay [11] deals with T2, Neuromedin-K receptor (Homo sapiens) (UniProt P29371).
T2 sequence (whole entry): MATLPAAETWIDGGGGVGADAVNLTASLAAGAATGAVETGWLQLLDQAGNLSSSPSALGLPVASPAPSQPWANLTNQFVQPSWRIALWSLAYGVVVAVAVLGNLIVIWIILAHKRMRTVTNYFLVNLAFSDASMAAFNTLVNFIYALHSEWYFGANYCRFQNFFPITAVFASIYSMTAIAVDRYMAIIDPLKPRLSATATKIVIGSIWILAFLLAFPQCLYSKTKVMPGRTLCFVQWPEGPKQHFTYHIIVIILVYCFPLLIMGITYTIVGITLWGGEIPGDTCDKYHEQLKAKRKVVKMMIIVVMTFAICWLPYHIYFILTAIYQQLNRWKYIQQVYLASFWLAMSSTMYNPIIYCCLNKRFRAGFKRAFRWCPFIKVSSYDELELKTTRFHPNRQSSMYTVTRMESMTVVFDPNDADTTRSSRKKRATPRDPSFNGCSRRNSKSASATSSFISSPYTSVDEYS
Description: Binding affinity to NK3 tachykinin receptor at 5 ug/mL by senktide binding assay.

The structures appear in SMILES notation. The source made the active and inactive calls. The rule behind the calls is not given here.

A word on the inhibition: it is the percentage by which the read-out fell short of the control. Low values mean little suppression, high ones strong suppression. In general, IC50 refers to the concentration needed to halve the response being measured.

Sequence of Somatostatin receptor (Rattus norvegicus) (Q7TT86 as listed by the source): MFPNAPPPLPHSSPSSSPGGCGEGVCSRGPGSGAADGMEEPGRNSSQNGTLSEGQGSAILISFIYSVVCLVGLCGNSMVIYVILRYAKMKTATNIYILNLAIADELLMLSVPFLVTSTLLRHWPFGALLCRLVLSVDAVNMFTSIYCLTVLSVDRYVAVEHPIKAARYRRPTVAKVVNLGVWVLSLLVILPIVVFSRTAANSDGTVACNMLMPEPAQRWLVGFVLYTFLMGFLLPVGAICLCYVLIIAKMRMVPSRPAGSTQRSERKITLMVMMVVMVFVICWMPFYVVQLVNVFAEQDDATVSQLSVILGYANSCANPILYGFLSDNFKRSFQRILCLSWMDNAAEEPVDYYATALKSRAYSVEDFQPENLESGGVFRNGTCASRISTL

Regarding `NCCc1c(C(CN)c2c[nH]c3cc(Br)ccc23)[nH]c2cc(Br)ccc12` (racemic), the result in [1], in assay [3], in assay [5], in [6], in assay [7] and in assay [9] was inactive. Also, in assay [11], the outcome was inactive. The molecule further displayed an Activity in [2] of 91%. The inhibition in assay [4] turned out to be 67%; in assay [8], 89%. The IC50 in assay [10] was found to be 10 µM.
For `NCCc1c(C(CN)c2c[nH]c3cc(Br)ccc23)[nH]c2ccc(O)c(C(CN)c3c[nH]c4cc(Br)ccc34)c12` (racemic), the IC50 in assay [10] was 2 µM.
With `NCCc1c(C(CN)c2c[nH]c3cc(Br)ccc23)[nH]c2ccc(O)cc12` (racemic), the outcome in assay [1], in [3], in [5], in assay [6], in assay [7] and in assay [9] was inactive. In assay [11], the outcome was inactive. In [2], this molecule yielded an Activity of 87%. Besides, the inhibition in [4] and in assay [8] was 63% throughout. Further, the 50% inhibitory concentration (IC50) in assay [10] came out at 50 µM.
On to `NCCc1c[nH]c2ccc(O)c(C(CN)c3c[nH]c4cc(Br)ccc34)c12` (racemic), for which, in [10], the IC50 is 100 µM.
`NCCc1c(C(CN)c2c[nH]c3cc(Br)ccc23)[nH]c2cc(C(CN)c3c[nH]c4cc(Br)ccc34)c(O)cc12` (racemic): the outcome in assay [1], in assay [3], in [5], in assay [6], in assay [7] and in assay [9] was inactive. The result in [11] was inactive. Moreover, in assay [2], the outcome was Active.
For the molecule `NCCc1c(C(CN)c2c[nH]c3cc(Br)ccc23)[nH]c2cc(C(CN)c3c[nH]c4cc(Br)ccc34)c(O)cc12` (stereo in doubt; form 1), the figures for the inhibition in [4] and in [8] were 90% and 100%, respectively.
On to `NCCc1c(C(CN)c2c[nH]c3cc(Br)ccc23)[nH]c2cc(C(CN)c3c[nH]c4cc(Br)ccc34)c(O)cc12` (stereo in doubt; form 2), for which the inhibition in [4] worked out at 62%; in [8], 93%.

The values above are taken from ChEMBL document CHEMBL1159283, “Further brominated bis- and tris-indole alkaloids from the deep-water New Caledonian marine sponge Orina Sp” (J Nat Prod, 1995).
